# According to US10597388B2, “Pyridazinone herbicides” (FMC CORPORATION, priority 2014, dated 2020):
# Experiments:
# Test in all cases: Test C greenhouse herbicide test, pre- and postemergence
# Type in all cases: in vivo
# [1] = tested on: barnyardgrass (Echinochloa crus-galli)
# In short: (§1)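 Seeds sown in loam–sand blend treated preemergence; plants in peat-based medium sprayed postemergence at 2–18 cm (1- to 4-leaf stage); chemicals in non-phytotoxic solvent with surfactant. Greenhouse 13–15 d, then visual rating versus controls on 0–100 scale (0 no effect, 100 complete control).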
# [2] = tested on: blackgrass (Alopecurus myosuroides)
# In short: as §1
# corn (Zea mays) = tested on: corn (Zea mays)
# In short: as §1
# [3] = tested on: crabgrass, large (large crabgrass, Digitaria sanguinalis)
# In short: as §1
# [4] = tested on: foxtail, giant (giant foxtail, Setaria faberii)
# In short: as §1
# [5] = tested on: galium (catchweed bedstraw, Galium aparine)
# In short: as §1
# [6] = tested on: lambsquarters (Chenopodium album)
# In short: as §1
# [7] = tested on: morningglory (Ipomoea coccinea)
# In short: as §1
# [8] = tested on: oilseed rape (Brassica napus)
# In short: as §1
# [9] = tested on: pigweed (Amaranthus retroflexus)
# In short: as §1
# [10] = tested on: ragweed (common ragweed, Ambrosia elatior)
# In short: as §1
# [11] = tested on: ryegrass, Italian (Italian ryegrass, Lolium multiflorum)
# In short: as §1
# [12] = tested on: velvetleaf (Abutilon theophrasti)
# In short: as §1
# [13] = tested on: waterhemp (common waterhemp, Amaranthus rudis)
# In short: as §1
# [14] = tested on: wheat (winter wheat, Triticum aestivum)
# In short: as §1
# [15] = Postemergence, 31 g ai/ha, scale 0 to 100 (0 no effect, 100 complete control)
# [16] = Postemergence, 62 g ai/ha, 0 to 100 scale (0 no effect, 100 complete control)
# [17] = Postemergence, 250 g ai/ha, scale 0 to 100, 0 no effect, 100 complete control, 13 to 15 d
# [18] = Preemergence, 31 g ai/ha, scale 0 to 100, 0 is no effect, 100 is complete control
# [19] = Preemergence, 62 g ai/ha, scale 0 to 100, 0 is no effect, 100 is complete control
# [20] = Preemergence, 125 g ai/ha, scale 0 to 100, 0 is no effect, 100 is complete control
# [21] = Preemergence, 250 g ai/ha, scale 0 to 100, 0 no effect, 100 complete control
# [22] = postemergence, 125 g ai/ha, scale 0 to 100, 0 no effect, 100 complete control
smiles,measurement,setting,value
COC(=O)Oc1c(C)nn(C)c(=O)c1-c1ccc(Br)c2ccccc12 [Compound 145],"Plant response rating, Barnyardgrass",[1]; [15],20
same,Barnyardgrass plant response rating,[1]; [16],15
same,"Plant response rating, Barnyardgrass","[1]; Postemergence, 125 g ai/ha, scale 0 to 100, 0 is no effect, 100 is complete control",30
same,"Plant response rating, Barnyardgrass",[1]; [17],70
same,"Plant response rating, Barnyardgrass",[1]; [18],10
same,"Plant response rating, Barnyardgrass",[1]; [19],35
same,"Plant response rating, Barnyardgrass",[1]; [20],75
same,Barnyardgrass plant response rating,[1]; [21],95
same,"Plant response rating, Blackgrass",[2]; [15],5
same,Blackgrass plant response rating,[2]; [16],0
same,"Plant response rating, Blackgrass",[2]; [17],90
same,"Plant response rating, Blackgrass",[2]; [18],10
same,"Plant response rating, Blackgrass",[2]; [19],30
same,"Plant response rating, Blackgrass",[2]; [20],60
same,Blackgrass plant response rating,[2]; [21],60
same,Blackgrass plant response rating,[2]; [22],30
same,"Plant response rating, Corn",corn (Zea mays); [15],10
same,Corn plant response rating,corn (Zea mays); [16],5
same,"Plant response rating, Corn",corn (Zea mays); [17],10
same,"Plant response rating, Corn",corn (Zea mays); [18],0
same,"Plant response rating, Corn",corn (Zea mays); [19],0
same,"Plant response rating, Corn",corn (Zea mays); [20],0
same,Corn plant response rating,corn (Zea mays); [21],15
same,Corn plant response rating,corn (Zea mays); [22],5
same,"Plant response rating, Crabgrass, Large",[3]; [15],15
same,"Crabgrass, Large plant response rating",[3]; [16],10
same,"Plant response rating, Crabgrass, Large",[3]; [17],20
same,"Plant response rating, Crabgrass, Large",[3]; [18],5
same,"Plant response rating, Crabgrass, Large",[3]; [19],50
same,"Plant response rating, Crabgrass, Large",[3]; [20],55
same,"Crabgrass, Large plant response rating",[3]; [21],55
same,"Crabgrass, Large plant response rating",[3]; [22],10
same,"Plant response rating, Foxtail, Giant",[4]; [15],20
same,"Foxtail, Giant plant response rating",[4]; [16],25
same,"Plant response rating, Foxtail, Giant",[4]; [17],55
same,"Plant response rating, Foxtail, Giant",[4]; [18],35
same,"Plant response rating, Foxtail, Giant",[4]; [19],60
same,"Plant response rating, Foxtail, Giant",[4]; [20],75
same,"Foxtail, Giant plant response rating",[4]; [21],95
same,"Foxtail, Giant plant response rating",[4]; [22],25
same,"Plant response rating, Galium",[5]; [15],90
same,Galium plant response rating,[5]; [16],95
same,"Plant response rating, Galium",[5]; [17],100
same,"Plant response rating, Galium",[5]; [18],90
same,"Plant response rating, Galium",[5]; [19],98
same,"Plant response rating, Galium",[5]; [20],100
same,Galium plant response rating,[5]; [21],98
same,Galium plant response rating,[5]; [22],98
same,"Plant response rating, Lambsquarters",[6]; [15],98
same,Lambsquarters plant response rating,[6]; [16],98
same,"Plant response rating, Lambsquarters",[6]; [17],100
same,"Plant response rating, Lambsquarters",[6]; [18],90
same,"Plant response rating, Lambsquarters",[6]; [19],90
same,"Plant response rating, Lambsquarters",[6]; [20],100
same,Lambsquarters plant response rating,[6]; [21],100
same,Lambsquarters plant response rating,[6]; [22],100
same,"Plant response rating, Morningglory",[7]; [15],95
same,Morningglory plant response rating,[7]; [16],98
same,"Plant response rating, Morningglory",[7]; [17],100
same,"Plant response rating, Morningglory",[7]; [18],75
same,"Plant response rating, Morningglory",[7]; [19],80
same,"Plant response rating, Morningglory",[7]; [20],98
same,Morningglory plant response rating,[7]; [21],100
same,Morningglory plant response rating,[7]; [22],100
same,"Plant response rating, Oilseed Rape",[8]; [15],98
same,Oilseed Rape plant response rating,[8]; [16],98
same,"Plant response rating, Oilseed Rape",[8]; [17],90
same,"Plant response rating, Oilseed Rape",[8]; [18],5
same,"Plant response rating, Oilseed Rape",[8]; [19],90
same,"Plant response rating, Oilseed Rape",[8]; [20],90
same,Oilseed Rape plant response rating,[8]; [21],98
same,Oilseed Rape plant response rating,[8]; [22],95
same,"Plant response rating, Pigweed",[9]; [15],70
same,Pigweed plant response rating,[9]; [16],100
same,"Plant response rating, Pigweed",[9]; [17],100
same,"Plant response rating, Pigweed",[9]; [18],70
same,"Plant response rating, Pigweed",[9]; [19],98
same,"Plant response rating, Pigweed",[9]; [20],100
same,Pigweed plant response rating,[9]; [21],100
same,Pigweed plant response rating,[9]; [22],75
same,"Plant response rating, Ragweed",[10]; [15],0
same,Ragweed plant response rating,[10]; [16],0
same,"Plant response rating, Ragweed",[10]; [17],25
same,"Plant response rating, Ragweed",[10]; [18],55
same,"Plant response rating, Ragweed",[10]; [19],65
same,"Plant response rating, Ragweed",[10]; [20],85
same,Ragweed plant response rating,[10]; [21],90
same,Ragweed plant response rating,[10]; [22],5
same,"Plant response rating, Ryegrass, Italian",[11]; [15],5
same,"Ryegrass, Italian plant response rating",[11]; [16],15
same,"Plant response rating, Ryegrass, Italian",[11]; [17],40
same,"Plant response rating, Ryegrass, Italian",[11]; [18],100
same,"Plant response rating, Ryegrass, Italian",[11]; [19],100
same,"Plant response rating, Ryegrass, Italian",[11]; [20],100
same,"Ryegrass, Italian plant response rating",[11]; [21],100
same,"Ryegrass, Italian plant response rating",[11]; [22],30
same,"Plant response rating, Velvetleaf",[12]; [15],85
same,Velvetleaf plant response rating,[12]; [16],90
same,"Plant response rating, Velvetleaf",[12]; [17],100
same,"Plant response rating, Velvetleaf",[12]; [18],40
same,"Plant response rating, Velvetleaf",[12]; [19],85
same,"Plant response rating, Velvetleaf",[12]; [20],95
same,Velvetleaf plant response rating,[12]; [21],100
same,Velvetleaf plant response rating,[12]; [22],98
same,"Plant response rating, Waterhemp",[13]; [15],95
same,Waterhemp plant response rating,[13]; [16],100
same,"Plant response rating, Waterhemp",[13]; [17],100
same,"Plant response rating, Waterhemp",[13]; [18],85
same,"Plant response rating, Waterhemp",[13]; [19],98
same,"Plant response rating, Waterhemp",[13]; [20],98
same,Waterhemp plant response rating,[13]; [21],100
same,Waterhemp plant response rating,[13]; [22],100
same,"Plant response rating, Wheat",[14]; [15],40
same,Wheat plant response rating,[14]; [16],50
same,"Plant response rating, Wheat",[14]; [17],90
same,"Plant response rating, Wheat",[14]; [18],0
same,"Plant response rating, Wheat",[14]; [19],0
same,"Plant response rating, Wheat",[14]; [20],0
same,Wheat plant response rating,[14]; [21],5
same,Wheat plant response rating,[14]; [22],85
